Measurements published in ChEMBL document CHEMBL3352801, “Synthesis and lipid-lowering evaluation of 3-methyl-1H-purine-2,6-dione derivatives as potent and orally available anti-obesity agents” (Eur J Med Chem, 2014).

Columns and labels:
Mus musculus [1] = experiment: Antiobesity activity in diet-induced obese C57Bl/6 mouse assessed as reduction in HOMA-IR value at 20 mg/kg/day, po for 4 weeks administered with high-fat diet (reference value: 0.94 +/- 0.23 no_unit); type: functional
[2] = Tmax in Sprague-Dawley rat at 5 mg/kg, iv; type: ADME, organism-based; set-up: dose 5 mg/kg, route intravenous; details: in vivo
Mus musculus [3] = experiment: Antiobesity activity in diet-induced obese C57Bl/6 mouse assessed as reduction in FFA level at 20 mg/kg/day, po for 4 weeks administered with high-fat diet (reference value: 25.07 +/- 3.49 ng/L); type: functional
[4] = Cmax in Sprague-Dawley rat at 20 mg/kg, po; type: ADME, organism-based; set-up: dose 20 mg/kg, route oral; details: in vivo
[5] = Tmax in Sprague-Dawley rat at 20 mg/kg, po; type: ADME, organism-based; set-up: dose 20 mg/kg, route oral; details: in vivo
Mus musculus [6] = experiment: Antiobesity activity in diet-induced obese C57Bl/6 mouse assessed as reduction in body weight at 50 mg/kg/day, po for 4 weeks administered with high-fat diet; type: functional; set-up: scale not given: the % may be the effect or the level left
[7] = AUC (0 to t) in Sprague-Dawley rat at 20 mg/kg, po; type: ADME, organism-based; set-up: dose 20 mg/kg, route oral; details: plasma
Mus musculus [8] = experiment: Antiobesity activity in diet-induced obese C57Bl/6 mouse assessed as reduction in LDL level at 50 mg/kg/day, po for 4 weeks administered with high-fat diet (reference value: 0.13 +/- 0.02 mM); type: functional
[9] = Cmax in Sprague-Dawley rat at 5 mg/kg, iv; type: ADME, organism-based; set-up: dose 5 mg/kg, route intravenous; details: in vivo
Mus musculus [10] = experiment: Antiobesity activity in diet-induced obese C57Bl/6 mouse assessed as reduction in FFA level at 50 mg/kg/day, po for 4 weeks administered with high-fat diet (reference value: 25.07 +/- 3.49 ng/L); type: functional
Mus musculus [11] = experiment: Antiobesity activity in diet-induced obese C57Bl/6 mouse assessed as reduction in fasting blood glucose at 20 mg/kg/day, po for 4 weeks administered with high-fat diet (reference value: 4.88 +/- 0.75 mM); type: functional
Mus musculus [12] = experiment: Antiobesity activity in diet-induced obese C57Bl/6 mouse assessed as reduction in HOMA-IR value at 50 mg/kg/day, po for 4 weeks administered with high-fat diet (reference value: 0.94 +/- 0.23 no_unit); type: functional
Mus musculus [13] = experiment: Antiobesity activity in diet-induced obese C57Bl/6 mouse assessed as reduction in body weight at 20 mg/kg/day, po for 4 weeks administered with high-fat diet; type: functional; set-up: scale not given: the % may be the effect or the level left
Mus musculus [14] = experiment: Toxicity in diet-induced obese C57Bl/6 mouse assessed as change in ALT level at 50 mg/kg/day, po for 4 weeks administered with high-fat diet (reference value: 29.6 +/- 8.29 U/L); type: organism-based; set-up: route oral; details: in vivo, 672 h
Mus musculus [15] = experiment: Toxicity in diet-induced obese C57Bl/6 mouse assessed as change in food intake at 20 mg/kg/day, po for 4 weeks administered with high-fat diet; type: organism-based; set-up: route oral; details: in vivo, 672 h
[16] = Volume of distribution in Sprague-Dawley rat at 5 mg/kg, iv; type: ADME, organism-based; set-up: dose 5 mg/kg, route intravenous; details: in vivo
Mus musculus [17] = experiment: Antiobesity activity in diet-induced obese C57Bl/6 mouse assessed as change in insulin level at 50 mg/kg/day, po for 4 weeks administered with high-fat diet (reference value: 4.31 +/- .82 mU); type: functional
Mus musculus [18] = experiment: Antiobesity activity in diet-induced obese C57Bl/6 mouse assessed as loss of epididymal fat mass at 150 mg/kg/day, po for 4 weeks administered with high-fat diet; type: functional
Mus musculus [19] = experiment: Antiobesity activity in diet-induced obese C57Bl/6 mouse assessed as loss of liver weight at 150 mg/kg/day, po for 4 weeks administered with high-fat diet; type: functional
[20] = Half life in Sprague-Dawley rat at 5 mg/kg, iv; type: ADME, organism-based; set-up: dose 5 mg/kg, route intravenous; details: in vivo
[21] = Total clearance in Sprague-Dawley rat at 20 mg/kg, po; type: ADME, organism-based; set-up: dose 20 mg/kg, route oral; details: in vivo
Mus musculus [22] = experiment: Antiobesity activity in diet-induced obese C57Bl/6 mouse assessed as loss of liver weight at 20 mg/kg/day, po for 4 weeks administered with high-fat diet; type: functional
Mus musculus [23] = experiment: Antiobesity activity in diet-induced obese C57Bl/6 mouse assessed as loss of epididymal fat mass at 20 mg/kg/day, po for 4 weeks administered with high-fat diet; type: functional
[24] = Half life in Sprague-Dawley rat at 20 mg/kg, po; type: ADME, organism-based; set-up: dose 20 mg/kg, route oral; details: in vivo
Rattus norvegicus = experiment: Volume of distribution in Sprague-Dawley rat at 20 mg/kg, po; type: ADME, organism-based; set-up: dose 20 mg/kg, route oral; details: in vivo
Mus musculus [25] = experiment: Antiobesity activity in diet-induced obese C57Bl/6 mouse assessed as reduction in hepatic triglyceride level at 50 mg/kg/day, po for 4 weeks administered with high-fat diet by Oil Red O staining-based histological method; type: functional; set-up: scale not given: the % may be the effect or the level left
Mus musculus [26] = experiment: Toxicity in diet-induced obese C57Bl/6 mouse assessed as change in AST level at 50 mg/kg/day, po for 4 weeks administered with high-fat diet (reference value: 128.00 +/- 20.59 U/L); type: organism-based; set-up: route oral; details: in vivo, 672 h
Mus musculus [27] = experiment: Antiobesity activity in diet-induced obese C57Bl/6 mouse assessed as loss of epididymal fat mass at 50 mg/kg/day, po for 4 weeks administered with high-fat diet; type: functional
[28] = AUC (0 to t) in Sprague-Dawley rat at 5 mg/kg, iv; type: ADME, organism-based; set-up: dose 5 mg/kg, route intravenous; details: plasma
Mus musculus [29] = experiment: Antiobesity activity in diet-induced obese C57Bl/6 mouse assessed as increase in HDL level at 50 mg/kg/day, po for 4 weeks administered with high-fat diet (reference value: 1.02 +/- 0.13 mM); type: functional
Mus musculus [30] = experiment: Antiobesity activity in diet-induced obese C57Bl/6 mouse assessed as reduction in triglyceride level at 50 mg/kg/day, po for 4 weeks administered with high-fat diet (reference value: 0.96 +/- 0.14 mM); type: functional
Mus musculus [31] = experiment: Antiobesity activity in diet-induced obese C57Bl/6 mouse assessed as change in insulin level at 20 mg/kg/day, po for 4 weeks administered with high-fat diet (reference value: 4.31 +/- .82 mU); type: functional
[32] = Solubility of the compound at room temperature; type: physicochemical
Mus musculus [33] = experiment: Antiobesity activity in diet-induced obese C57Bl/6 mouse assessed as increase in HDL level at 20 mg/kg/day, po for 4 weeks administered with high-fat diet (reference value: 1.02 +/- 0.13 mM); type: functional
[34] = Oral bioavailability in Sprague-Dawley rat at 20 mg/kg; type: ADME, organism-based; details: in vivo
[35] = Total clearance in Sprague-Dawley rat at 5 mg/kg, iv; type: ADME, organism-based; set-up: dose 5 mg/kg, route intravenous; details: in vivo
Mus musculus [36] = experiment: Antiobesity activity in diet-induced obese C57Bl/6 mouse assessed as reduction in fasting blood glucose at 50 mg/kg/day, po for 4 weeks administered with high-fat diet (reference value: 4.88 +/- 0.75 mM); type: functional
Mus musculus [37] = experiment: Antiobesity activity in diet-induced obese C57Bl/6 mouse assessed as reduction in triglyceride level at 20 mg/kg/day, po for 4 weeks administered with high-fat diet (reference value: 0.96 +/- 0.14 mM); type: functional
Mus musculus [38] = experiment: Antiobesity activity in diet-induced obese C57Bl/6 mouse assessed as loss of liver weight at 50 mg/kg/day, po for 4 weeks administered with high-fat diet; type: functional
Mus musculus [39] = experiment: Toxicity in diet-induced obese C57Bl/6 mouse assessed as change in AST level at 20 mg/kg/day, po for 4 weeks administered with high-fat diet (reference value: 128.00 +/- 20.59 U/L); type: organism-based; set-up: route oral; details: in vivo, 672 h
Mus musculus [40] = experiment: Antiobesity activity in diet-induced obese C57Bl/6 mouse assessed as reduction in LDL level at 20 mg/kg/day, po for 4 weeks administered with high-fat diet (reference value: 0.13 +/- 0.02 mM); type: functional
Mus musculus [41] = experiment: Toxicity in diet-induced obese C57Bl/6 mouse assessed as change in ALT level at 20 mg/kg/day, po for 4 weeks administered with high-fat diet (reference value: 29.6 +/- 8.29 U/L); type: organism-based; set-up: route oral; details: in vivo, 672 h
Mus musculus [42] = experiment: Antiobesity activity in diet-induced obese C57Bl/6 mouse assessed as reduction in hepatic triglyceride level at 20 mg/kg/day, po for 4 weeks administered with high-fat diet by Oil Red O staining-based histological method; type: functional; set-up: scale not given: the % may be the effect or the level left

CCn1c(-c2ccc(OCCN(C)c3ccccn3)cc2)nc2c1c(=O)n(Cc1ccccc1C#N)c(=O)n2C.Cl
Activity (Mus musculus [1]): 2.98
Tmax [2]: 4.98 min
Activity (Mus musculus [3]): 26.8 ng/L
Cmax [4]: 465 ng/mL
Tmax [5]: 2.79 h
Activity (Mus musculus [6]): 15.08%
AUC(0-t) [7]: 4190 ng·h/mL
Activity (Mus musculus [8]): 0.17 mM
Cmax [9]: 1740 ng/mL
Activity (Mus musculus [10]): 25.73 ng/L
Activity (Mus musculus [11]): 8.42 mM
Activity (Mus musculus [12]): 1.59
Activity (Mus musculus [13]): 12.86%
Activity (Mus musculus [14]): 18.86 U/L
Activity (Mus musculus [15]): Non-toxic
Vd [16]: 23.6 L/kg
Activity (Mus musculus [17]): 4.76 mU
Activity (Mus musculus [18]): 9.92%
Activity (Mus musculus [19]): 22%
half-life [20]: 5.82 h
CL/F [21]: 139 mL/min/kg
Activity (Mus musculus [22]): 20%
Activity (Mus musculus [23]): 18.18%
half-life [24]: 6.97 h
Vd (Rattus norvegicus): 67.208 L/kg
Activity (Mus musculus [25]): 21.59%
Activity (Mus musculus [26]): 131.43 U/L
Activity (Mus musculus [27]): 56.2%
AUC(0-t) [28]: 1780 ng·h/mL
Activity (Mus musculus [29]): 1.38 mM
Activity (Mus musculus [30]): 0.94 mM
Activity (Mus musculus [31]): 7.48 mU
solubility [32]: 3280 µg/mL
Activity (Mus musculus [33]): 1.31 mM
bioavailability [34]: 58.9%
clearance [35]: 47.1 mL/min/kg
Activity (Mus musculus [36]): 7.76 mM
Activity (Mus musculus [37]): 1.25 mM
Activity (Mus musculus [38]): 22.67%
Activity (Mus musculus [39]): 125.71 U/L
Activity (Mus musculus [40]): 0.22 mM
Activity (Mus musculus [41]): 24 U/L
Activity (Mus musculus [42]): 16.8%
